Assay results reported in PubChem BioAssay AID1645861 (Buhrlage Lab, Dana-Farber Cancer Institute and Novartis …, 2021).
The source made the active and inactive calls.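 How the source made its calls: active means compounds whose peak USP7 inhibition across the dose series reached 30% or more; inactive means the rest.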

Target: Ubiquitin carboxyl-terminal hydrolase 7 (Homo sapiens) (UniProt Q93009)
Assay: Ubiquitin-specific protease 7 DUB inhibitors, concentration-effect, biochemical, validation of primary hits (AID 1645861)
Settings: purified USP7, Ub-rhodamine cleavage fluorescence, 60 min

Chain of Ubiquitin carboxyl-terminal hydrolase 7 (Homo sapiens) (Q93009 whole entry, looked up): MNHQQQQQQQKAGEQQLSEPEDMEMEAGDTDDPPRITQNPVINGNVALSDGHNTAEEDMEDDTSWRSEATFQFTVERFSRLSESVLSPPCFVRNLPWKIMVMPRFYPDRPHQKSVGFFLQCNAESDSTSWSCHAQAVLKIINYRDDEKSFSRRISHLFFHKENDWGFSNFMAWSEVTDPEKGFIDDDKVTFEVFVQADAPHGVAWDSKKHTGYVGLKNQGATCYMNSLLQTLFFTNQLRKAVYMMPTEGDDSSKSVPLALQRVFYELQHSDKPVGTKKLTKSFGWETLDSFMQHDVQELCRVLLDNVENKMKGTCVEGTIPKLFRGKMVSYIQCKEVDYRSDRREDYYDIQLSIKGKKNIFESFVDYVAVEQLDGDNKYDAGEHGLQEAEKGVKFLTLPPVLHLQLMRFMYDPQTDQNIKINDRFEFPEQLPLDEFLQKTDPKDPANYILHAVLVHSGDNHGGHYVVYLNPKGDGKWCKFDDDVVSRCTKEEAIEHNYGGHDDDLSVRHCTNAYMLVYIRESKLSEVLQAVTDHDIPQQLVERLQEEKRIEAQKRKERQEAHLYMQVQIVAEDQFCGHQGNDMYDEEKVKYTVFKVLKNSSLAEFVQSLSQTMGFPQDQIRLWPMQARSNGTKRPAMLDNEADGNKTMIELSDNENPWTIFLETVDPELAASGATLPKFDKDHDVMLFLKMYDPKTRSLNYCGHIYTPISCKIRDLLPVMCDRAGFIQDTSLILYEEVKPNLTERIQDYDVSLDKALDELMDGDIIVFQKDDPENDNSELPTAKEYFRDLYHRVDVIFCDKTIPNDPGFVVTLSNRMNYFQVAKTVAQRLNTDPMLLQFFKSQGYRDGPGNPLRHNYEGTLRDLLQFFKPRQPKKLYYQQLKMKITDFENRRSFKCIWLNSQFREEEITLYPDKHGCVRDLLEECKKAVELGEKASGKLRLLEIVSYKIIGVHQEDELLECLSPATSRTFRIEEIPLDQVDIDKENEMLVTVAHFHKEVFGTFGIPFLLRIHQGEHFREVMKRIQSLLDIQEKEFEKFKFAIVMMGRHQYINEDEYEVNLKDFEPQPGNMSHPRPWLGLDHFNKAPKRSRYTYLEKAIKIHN

Row | SMILES | IC50
1 | Cc1ccc(-n2cc(-c3noc(C(=O)Nc4ccc(F)cc4C)n3)nn2)cc1 | > 50 µM (inactive)
2 | COc1cc2c(c(OCC(=O)Nc3ccc4c(c3)OCCO4)c1)C(=O)O[C@@H](C)CCCC(=O)CCCCC2 | > 50 µM (inactive)
3 | CO/C=C/C(=O)c1cc2cnc3c(=N)cc(NC(C)=O)c([nH]1)c23 | 9.52 µM
4 | O=C(CCn1c(=O)c2ccccc2n(CC(=O)OCc2ccccc2)c1=O)NCc1ccc2c(c1)OCO2 | > 50 µM (inactive)
5 | Cc1ccc(Nc2nc(O)c(CC(=O)Nc3cccc(Cl)c3C)s2)cc1C | > 50 µM (inactive)
6 | Nc1c(-c2nc(-c3ccccc3Cl)no2)nnn1-c1ccc(Cl)cc1 | > 50 µM (inactive)
7 | Cc1ccc(CNC(=O)Cn2c(=O)n(CCCC(=O)NCc3ccc(F)cc3)c(=O)c3ccccc32)cc1 | > 50 µM (inactive)
8 | COc1cc2c(=O)n(CCC(=O)NC3CCCC3)c(=O)n(CC(=O)Nc3cccc(Cl)c3)c2cc1OC | > 50 µM (inactive)
9 | CCOC(=O)c1ccc(NC(=O)Cn2c(=O)n(-c3ccc(CC(=O)NCc4ccco4)cc3)c(=O)c3ccccc32)cc1 | > 50 µM (inactive)
10 | O=C1C(=O)N(c2nc3ccc(F)cc3s2)C(c2ccc(F)cc2)/C1=C(\O)c1ccc(F)cc1 (stereo unspecified) | 30.6 µM
11 | O=C(CSc1oc(-c2ccc(F)cc2)nc1S(=O)(=O)c1ccc(F)cc1)Nc1ccc(F)cc1 | > 50 µM (inactive)
12 | O=C(c1ccco1)N1CCC2(CC1)CC1(CO2)Nc2ccccc2-n2cccc21 (stereo unspecified) | > 50 µM (inactive)
13 | Cc1ccc2[nH]c(=O)c(-c3nc4ccc(C)cn4c3NCc3ccc(F)cc3)cc2c1 | 24.6 µM
14 | O=C(Cn1c(=O)c2sccc2n(CC(=O)OCc2ccccc2)c1=O)NCc1ccccc1Cl | > 50 µM (inactive)
15 | Cc1ccc(S(=O)(=O)Nc2ccccc2C(=O)Nc2nc3ccc(Br)cc3s2)cc1 | 10 µM
16 | O=C(Nc1cccc(Br)c1)c1cc(-c2cccnc2)n[nH]1 | 48.7 µM
17 | O=C(CCCCCn1c(=O)c2sccc2n(CC(=O)c2ccc(Cl)c(Cl)c2)c1=O)NCc1ccc2c(c1)OCO2 | > 50 µM (inactive)
18 | CC1=C(C)C(N(c2ccccc2)c2ccccc2)N(CCC(C)C)C1=O (stereo unspecified) | > 50 µM (inactive)
19 | CCOC(=O)c1ccc(NC(=O)Cn2c(=O)n(CC(=O)NCc3ccco3)c(=O)c3ccccc32)cc1 | > 50 µM (inactive)
20 | O=C(NCCc1ccccc1)c1ccc2c(=O)n(Cc3ccco3)c(=O)n(Cc3cccc([N+](=O)[O-])c3)c2c1 | 13.4 µM
21 | Cn1c(CCNC(=O)c2[nH]nc3c2CCc2ccccc2-3)nc2ccccc21 | > 50 µM (inactive)
22 | CCOc1ccc(-n2c(=O)c3sccc3n(CC(=O)Nc3cccc(C)c3)c2=O)cc1 | > 50 µM (inactive)

Row | SMILES | IC50
23 | O=c1cc(-c2ccc(O)c(O)c2)oc2cc(O)cc(O)c12 | 2.81 µM
24 | CC1CCCN(S(=O)(=O)c2ccc(-n3cnc(C(=O)NC4CC4)c3)nc2)C1 (stereo unspecified) | > 50 µM (inactive)
25 | O=C1c2c(O)c(Cl)cc3c2[C@@]2(Oc4ccc(O)c5c4[C@]3(O2)[C@@H]2O[C@@H]2C5=O)[C@@H]2O[C@H]12 | 16.3 µM
26 | CCCCCCCC1OC(=O)Cc2cc(O)c(O)c(O)c21 (stereo unspecified) | > 50 µM (inactive)
27 | Cc1ccc(Cn2cc(-c3noc(C(=O)Nc4cc(F)ccc4F)n3)nn2)cc1 | > 50 µM (inactive)
28 | O=C(Cn1c(-c2ccccc2)ncc(C(=O)NC2CC2)c1=O)Nc1ccccc1 | > 50 µM (inactive)
29 | O=C(Nc1cc(F)c2nc(N3CCOCC3)ccc2c1)C1CC1 | > 50 µM (inactive)
30 | CC(C)[C@H]1CC[C@@]2(CO2)[C@H]2C(=O)OCC(C(=O)O)=C[C@H]12 | > 50 µM (inactive)
31 | Cc1ccc(NC(=O)Nc2ccc(C)n(CC(=O)Nc3ccc(C)cc3C)c2=O)cc1 | 40.2 µM
32 | COC(=O)c1ccc2c(=O)n(CCCCCC(=O)NCCc3ccccc3Cl)c(=O)[nH]c2c1 | > 50 µM (inactive)
33 | Cc1cc(O)c2c3c(c(O)cc2c1)C(=O)c1c(O)cccc1C3=O | 19.5 µM
34 | COc1ccc(-c2nc(SCC(=O)Oc3c(C)cccc3C)n3[nH]c(=O)cc3n2)cc1 | > 50 µM (inactive)
35 | CCOc1ccc2c(c1)c(=O)c(C(=O)c1ccccc1)cn2CC(=O)Nc1ccc2c(c1)OCCO2 | > 50 µM (inactive)
36 | O=C(c1ccccn1)N1CCC2(CC1)CC1(CO2)Nc2ccccc2-n2cccc21 (stereo unspecified) | > 50 µM (inactive)
37 | O=C(Cn1c(=O)c2ccccc2c2ccccc21)Nc1ccc2c(c1)OCO2 | > 50 µM (inactive)
38 | CCOc1ccc(-n2c(SCC(=O)Nc3ccc(C)cc3)nnc2-c2c[nH]c3ccccc23)cc1 | > 50 µM (inactive)
39 | O=C(CCCC(=O)N(c1ccc2c(c1)OCCO2)C(C(=O)NC1CCCCC1)c1ccc(F)cc1)Nc1ccccn1 (stereo unspecified) | > 50 µM (inactive)
40 | COc1ccc(CCNC(=O)Cn2c(=O)c3sccc3n(Cc3cccc([N+](=O)[O-])c3)c2=O)cc1OC | > 50 µM (inactive)
41 | Nc1ccc2oc(-c3cccc(-c4nc5cc(N)ccc5o4)n3)nc2c1 | > 50 µM (inactive)
42 | COC(=O)c1ccc(Nc2cc(C)nc3cc(C(F)(F)F)ccc23)cc1 | > 50 µM (inactive)
43 | Cc1cccc(C(=O)Nc2cccc(SC(C(=O)Nc3ccc(Cl)c(C(=O)O)c3)c3ccccc3)c2)c1 (stereo unspecified) | 34.1 µM
44 | COc1cccc(CNC(=O)c2nnn(CC(=O)Nc3cc(C)ccc3C)c2N)c1 | > 50 µM (inactive)

Row | SMILES | IC50
45 | CCOc1ccc(-c2noc(-c3nn(-c4cccc(OC)c4)ccc3=O)n2)cc1 | > 50 µM (inactive)
46 | CC(C)CCCCCCCCCCC(=O)N(C)[C@H](CO)C(=O)N[C@H](C)C(=O)NCC(=O)N(C)C1C(=O)N[C@@H](C)C(=O)NC(C(=O)O)Cc2ccc(O)c(c2)-c2cc1ccc2O (stereo partly specified) | > 50 µM (inactive)
47 | Cc1ccc(NC(=O)c2ccc3nn(CC(=O)Nc4ccc(F)cc4F)c(=O)n3c2)cc1 | > 50 µM (inactive)
48 | O=c1[nH]c(C2CCN(S(=O)(=O)c3ccc(S(=O)(=O)NC4CCCC4)cc3)CC2)nc2c1nnn2Cc1cccc(Cl)c1 | > 50 µM (inactive)
49 | Cc1ccc(Cn2cc(C(=O)Nc3ccccc3C(N)=O)ccc2=O)cc1 | > 50 µM (inactive)
50 | COc1cc2c(=O)n(CC3CCCO3)c(=O)n(CC(=O)c3ccc4c(c3)OCO4)c2cc1OC (stereo unspecified) | > 50 µM (inactive)
51 | Cc1nn(-c2ccc(F)cc2)c(C)c1S(=O)(=O)N1CCN(c2ccccn2)CC1 | > 50 µM (inactive)
52 | CCOC(=O)c1ccc(Oc2sccc2[N+](=O)[O-])cc1 | 10.7 µM
53 | COc1ccc2cc(C(=O)N3CCC(C(C)C(=O)NCc4cccc(F)c4)CC3)[nH]c2c1 (stereo unspecified) | > 50 µM (inactive)
54 | CC(NC(=O)c1nc2n(n1)-c1ccccc1S(=O)(=O)N2)c1cc2ccccc2o1 (stereo unspecified) | > 50 µM (inactive)
55 | CC[C@@H](C(=O)[C@@H](C)[C@@H](O)[C@H](C)CCc1ccc(C)c(O)c1C(=O)O)[C@@H]1O[C@](CC)([C@H]2CC[C@](O)(CC)[C@H](C)O2)C[C@@H]1C | 28.6 µM
56 | Cc1cccc(NC(=O)Nc2ccccc2OCc2cc(=O)n3cccc(C)c3n2)c1 | > 50 µM (inactive)
57 | COc1ccc(C2/C(=C(\O)c3ccccc3)C(=O)C(=O)N2c2nc3ccc(F)cc3s2)cc1 (stereo unspecified) | 23.7 µM
58 | O=c1cc(-c2ccc(O)c(O)c2)oc2cc(O[C@@H]3O[C@H](CO)[C@@H](O)[C@H](O)[C@H]3O)cc(O)c12 | 0.713 µM
59 | CCOC(=O)C1CCN(C(=O)c2ccc3c(c2)NC(=O)C2CCCN32)CC1 (stereo unspecified) | > 50 µM (inactive)
60 | O=c1c2[nH]c3ccccc3c2ncn1Cc1ccncc1 | > 50 µM (inactive)
61 | Cc1ccc(N2CC(c3nc4ccccc4n3CCOc3cccc(C)c3)CC2=O)cc1 (stereo unspecified) | 42.7 µM
62 | CC1(C)Cc2c(c(-c3ccco3)nc3sc4c(SCCCc5ccccc5)ncnc4c23)CO1 | > 50 µM (inactive)
63 | O=C(NC(Cc1ccccc1)c1nc2ccccc2[nH]1)C1CC1 (stereo unspecified) | > 50 µM (inactive)
64 | Cc1nc(SCC(=O)NC(C)c2ccccc2)c2oc3ccccc3c2n1 (stereo unspecified) | > 50 µM (inactive)
65 | CCOC(=O)C1CCN(Cc2cc(=O)oc3cc(O)c(O)cc23)CC1 | 6.18 µM
66 | COc1ccc(-c2cc(-c3ccc(F)cc3)[nH]c(=O)c2C#N)cc1 | > 50 µM (inactive)

Row | SMILES | IC50
67 | O=C(NCc1ccc2c(c1)OCO2)c1cn(-c2cccc(Cl)c2)nn1 | > 50 µM (inactive)
68 | CCc1noc(-c2ccn3c(CC(=O)Nc4ccccc4C)nnc3c2)n1 | > 50 µM (inactive)
69 | COc1ccc(NC(=O)Cn2c(=O)n(Cc3ccco3)c(=O)c3ccc(C(=O)NC4CCCC4)cc32)cc1 | > 50 µM (inactive)
70 | Cc1ccc(NC(=O)Cn2c(=O)n(CC(=O)NCCc3ccccc3)c(=O)c3sccc32)cc1C | > 50 µM (inactive)
71 | COc1cccc(NC(=O)Cn2c3ccccc3n3c(=O)cc(-c4ccccc4)nc23)c1 | > 50 µM (inactive)
72 | O=C(Nc1cccc(F)c1)Nc1cccc(-c2nnc(-c3ccccc3)o2)c1 | > 50 µM (inactive)
73 | O=C(CCc1ccc(S(=O)(=O)N2CCOCC2)cc1)OCC(=O)c1ccc(-c2ccccc2)cc1 | > 50 µM (inactive)
74 | Nc1c(C(=O)NCc2ccc3c(c2)OCO3)nnn1Cc1ccc(Br)cc1F | > 50 µM (inactive)
75 | Cc1cc(NS(=O)(=O)c2ccc(NC(=O)c3ccc(N4CCCC4)c([N+](=O)[O-])c3)cc2)no1 | > 50 µM (inactive)
76 | COc1ccc([N+](=O)[O-])cc1NC(=O)COC(=O)c1ccc2[nH]c3c(c2c1)CCCC3 | > 50 µM (inactive)
77 | CC1OC2CC(O)C1(O)C1=C2C(O)=C(C(N)=O)C(=N)C1=O (stereo unspecified) | > 50 µM (inactive)
78 | Cc1nc(-c2ccc(Cl)cc2)oc1C(=O)Nc1ccc(Cl)cc1 | > 50 µM (inactive)
79 | COc1cccc(C(=O)Nc2ccc(SC(C)C(=O)Nc3ccc(C(N)=O)cc3)cc2)c1 (stereo unspecified) | > 50 µM (inactive)
80 | CC(C)=CCCC1(C)C=Cc2c(O)c3c(c(CC=C(C)C)c2O1)OC12C(=CC4CC1C(C)(C)OC2(C/C=C(/C)C(=O)O)C4=O)C3=O (stereo unspecified) | 17.4 µM
81 | CSc1ccc(CNC(=O)Cn2nc(C)c3c(C)n(-c4ccccc4)nc3c2=O)cc1 | 45.6 µM
82 | N#Cc1c(-c2ccc(Cl)cc2)cc(-c2cccc(Br)c2)[nH]c1=O | > 50 µM (inactive)
83 | Cc1nc(N2CCCC2)ncc1-c1cc(=O)[nH]c(Nc2ccc(Cl)cc2Cl)n1 | > 50 µM (inactive)
84 | COc1ccc(Cl)cc1NC(=O)c1nc(-c2cn(-c3ccccc3)nn2)no1 | > 50 µM (inactive)
85 | CCn1cc2c(n1)c(=O)n(Cc1ccccc1)c(=O)n2CC(=O)Nc1ccc(C(C)C)cc1 | > 50 µM (inactive)
86 | Cc1ccc2[nH]c3c(=O)n(Cc4ccc(N(C)C)cc4)cnc3c2c1 | > 50 µM (inactive)
